# Assay results as given in patent US6933321B2, “Antiandrogenic biphenyls” (Endorecherche, Inc., priority 2002, dated 2005).
# Like-named read-outs stand apart in the source and are kept apart here.
# Tested on: Shionogi mouse mammary carcinoma cells
# Experiment: Antiandrogenic activity on DHT-stimulated Shionogi mouse mammary carcinoma cell number
# Assay type: cell-based
# Conditions: for A = Ki OH-Flu/Ki compound: ratio of Ki of hydroxyflutamide versus tested compound, higher values preferable
# [1] = Mus musculus, inhibition of DHT-stimulated Shionogi cell number, 10-12 days, read-out: Antiandrogenic activity IC50
# [2] = inhibition of DHT-stimulated Shionogi cell number
# [3] = Mus musculus, read-out: Antiandrogenic activity IC50 (nM)
SMILES,IC50 [1] [nM],A = Ki OH-Flu/Ki compound [2],IC50 [3] [nM],"IC50 (inhibition of DHT-stimulated Shionogi cell number, 10-12 days, read-out: Antiandrogenic activity IC50) [nM]"
COc1ccc(-c2ccc([N+](=O)[O-])cc2)cc1 [EM-3234],> 500,<0.2,–,–
COc1ccc(-c2ccc([N+](=O)[O-])c(C(F)(F)F)c2)cc1 [EM-3393],129,0.4,–,–
COc1ccc(-c2ccc(C#N)c(C(F)(F)F)c2)cc1 [EM-3394],–,1.1,49.5,–
N#Cc1ccc(-c2ccc(Cl)cc2)cc1C(F)(F)F [EM-3703],–,0.3,97,–
COc1ccc(-c2ccc(C#N)cc2)cc1 [EM-3704],> 500,<0.2,–,–
N#Cc1ccc(-c2ccc(F)cc2)cc1C(F)(F)F [EM-3705],129,0.7,–,–
N#Cc1cccc(-c2ccc(C#N)c(C(F)(F)F)c2)c1 [EM-3729],> 500,<0.2,–,–
N#Cc1ccc(-c2ccc(C#N)c(C(F)(F)F)c2)cc1 [EM-3730],190,–,–,152
CSc1ccc(-c2ccc(C#N)c(C(F)(F)F)c2)cc1 [EM-3732],> 500,<0.2,–,–
COc1ccc(Cl)cc1-c1ccc(C#N)c(C(F)(F)F)c1 [EM-3747],> 500,<0.2,–,–
C[S+]([O-])c1ccc(-c2ccc(C#N)c(C(F)(F)F)c2)cc1 (stereo not shown) [EM-3812],> 500,<0.2,–,–
CN(C)c1ccc(-c2ccc(C#N)c(C(F)(F)F)c2)cc1 [EM-3814],150,0.9,–,–
N#Cc1ccc(-c2ccc(C(N)=O)cc2)cc1C(F)(F)F [EM-3971],> 500,<0.2,–,–
N#Cc1ccc(-c2cc(F)cc(F)c2)cc1C(F)(F)F [EM-3974],> 500,<0.2,–,–
N#Cc1ccc(-c2ccc(F)cc2F)cc1C(F)(F)F [EM-3975],131,0.77,–,–
N#Cc1ccc(-c2ccccc2F)cc1C(F)(F)F [EM-3976],> 500,<0.2,–,–
N#Cc1ccc(-c2cccc(F)c2)cc1C(F)(F)F [EM-3977],> 500,<0.2,–,–
N#Cc1ccc(-c2ccc(F)cc2)cc1 [EM-3978],> 500,<0.2,–,–
CC(O)(c1ccc(-c2ccc(C#N)cc2)cc1)C(F)(F)F (stereo not shown) [EM-3979],> 500,<0.2,–,–
CCN(CC)C(=O)c1ccc(-c2ccc(C#N)c(C(F)(F)F)c2)cc1 [EM-3987],> 500,<0.2,–,–
N#Cc1ccc(-c2ccc(C#N)cc2)cc1 [EM-3993],> 500,<0.2,–,–
N#Cc1ccc(-c2ccc(C(O)C(F)(F)F)cc2)cc1C(F)(F)F (stereo not shown) [EM-3998],> 500,<0.2,–,–
N#Cc1ccc(-c2ccc(C#N)c(C(F)(F)F)c2)cc1C(F)(F)F [EM-4012],> 500,<0.2,–,–
CC(O)(c1ccc(-c2ccc(C#N)c(C(F)(F)F)c2)cc1)C(F)(F)F (stereo not shown) [EM-4026],> 500,<0.2,–,–
N#Cc1ccc(-c2ccccc2C(F)(F)F)cc1C(F)(F)F [EM-4034],> 500,<0.2,–,–

SMILES,IC50 [1] [nM],A = Ki OH-Flu/Ki compound [2],IC50 [3] [nM],"IC50 (inhibition of DHT-stimulated Shionogi cell number, 10-12 days, read-out: Antiandrogenic activity IC50) [nM]"
COc1ccc(-c2ccc(C#N)cc2)cc1Br [EM-4036],> 500,<0.2,–,–
N#Cc1ccc(-c2ccc(F)c(F)c2)cc1C(F)(F)F [EM-4047],–,<1,> 100,–
N#Cc1ccc(-c2ccc(N)cc2)cc1 [EM-4049],> 500,<0.2,–,–
N#Cc1ccc(-c2ccc(C(F)(F)F)cc2)cc1C(F)(F)F [EM-4051],> 500,<0.2,–,–
N#Cc1cc(-c2ccc(C#N)c(C(F)(F)F)c2)ccc1F [EM-4056],> 500,<0.2,–,–
N#Cc1ccc(-c2ccc(C#N)c(C(F)(F)F)c2)cc1F [EM-4065],–,<0.2,> 500,–
Cc1cc(-c2ccc(C#N)c(C(F)(F)F)c2)ccc1C#N [EM-4069],110,0.7,–,–
N#Cc1ccccc1-c1ccc(C#N)c(C(F)(F)F)c1 [EM-4071],–,2.5,33,–
Cc1cc(C#N)ccc1-c1ccc(C#N)c(C(F)(F)F)c1 [EM-4079],–,0.8,78,–
N#Cc1ccc(-c2ccc(F)c(C(F)(F)F)c2)cc1C(F)(F)F [EM-4093],> 500,<0.2,–,–
N#Cc1cc(F)ccc1-c1ccc(C#N)c(C(F)(F)F)c1 [EM-4096],> 500,<0.2,–,–
N#Cc1ccc(-c2ccc(C#N)c(C(F)(F)F)c2)cc1Cl [EM-4108],112,0.6,–,–
N#Cc1ccc(-c2cc(F)c(F)c(F)c2)cc1C(F)(F)F [EM-4116],> 500,<0.2,–,–
N#Cc1ccc(-c2ccccc2)cc1C(F)(F)F [EM-4118],> 500,<0.2,–,–
N#Cc1ccc(-c2ccc([N+](=O)[O-])cc2)cc1C(F)(F)F [EM-4149],> 500,<0.2,–,–
N#Cc1ccc(-c2ccc(N)cc2C(F)(F)F)cc1C(F)(F)F [EM-4154],145,0.7,–,–
"N#Cc1ccc(-c2ccc(F)cc2C(N)=O)cc1C(F)(F)F [EM-4171, 4′-Cyano-4-fluoro-3′-trifluoromethyl-biphenyl-2-carboxylic acid amide]",943,0.2,–,–
N#Cc1ccc(-c2ccc(Br)c(C(F)(F)F)c2)cc1 [EM-4177],> 500,<0.2,–,–
N#Cc1ccc(-c2ccc([N+](=O)[O-])c(C(F)(F)F)c2)cc1 [EM-4180],–,<0.2,> 500,–
Cc1ccc(-c2ccc(C#N)c(C(F)(F)F)c2)c(C(F)(F)F)c1 [EM-4185],193,0.7,–,–
N#Cc1ccc(-c2ccc(C#N)c(C(F)(F)F)c2)c(F)c1 [EM-4189],132,1.1,–,–
COc1ccc(-c2ccc(C#N)c(C(F)(F)F)c2)c(Cl)c1 [EM-4190],162,0.9,–,–
N#Cc1ccc(-c2c(F)cc(F)cc2F)cc1C(F)(F)F [EM-4203],280,0.6,–,–
N#Cc1ccc(-c2ccc(C#N)c(C(F)(F)F)c2)c(Cl)c1 [EM-4205],–,3.0,52,–
CN(C)C(=O)Nc1ccc(-c2ccc(C#N)c(C(F)(F)F)c2)cc1 [EM-4206],> 500,<0.2,–,–

SMILES,IC50 [1] [nM],A = Ki OH-Flu/Ki compound [2],IC50 [3] [nM],"IC50 (inhibition of DHT-stimulated Shionogi cell number, 10-12 days, read-out: Antiandrogenic activity IC50) [nM]"
N#Cc1ccc(-c2ccc(F)c(Cl)c2)cc1C(F)(F)F [EM-4216],> 500,<0.2,–,–
CSc1cc(C#N)ccc1-c1ccc(C#N)c(C(F)(F)F)c1 [EM-4227],121,1.2,–,–
N#Cc1ccc(-c2ccc(F)c([N+](=O)[O-])c2)cc1C(F)(F)F [EM-4230],> 500,<0.2,–,–
N#Cc1ccc(-c2ccc(F)cc2[N+](=O)[O-])cc1C(F)(F)F [EM-4234],–,3.2,43.2,–
CC(=O)Nc1ccc(-c2ccc(C#N)c(C(F)(F)F)c2)cc1 [EM-4243],> 500,<0.2,–,–
CS(=O)(=O)Nc1ccc(-c2ccc(C#N)c(C(F)(F)F)c2)cc1 [EM-4244],> 500,<0.2,–,–
COc1ccc(-c2ccc(C#N)cc2)cc1C(F)(F)F [EM-4246],> 500,<0.2,–,–
N#Cc1ccc(-c2ccc(Cl)c(C(F)(F)F)c2)cc1 [EM-4248],> 500,<0.2,–,–
N#Cc1ccc(-c2ccc(F)c(C(F)(F)F)c2)cc1 [EM-4249],> 500,<0.2,–,–
N#Cc1ccc(-c2ccc(C#N)c(C(F)(F)F)c2)c([N+](=O)[O-])c1 [EM-4253],> 500,<0.2,–,–
CS(=O)(=O)c1cc(C#N)ccc1-c1ccc(C#N)c(C(F)(F)F)c1 [EM-4255],> 500,<0.2,–,–
C[C@@](O)(c1cccc(-c2ccc(C#N)c(C(F)(F)F)c2)c1)C(F)(F)F [EM-4264],–,1.6,54,–
N#Cc1ccc(-c2ccc(C#N)c(F)c2)cc1 [EM-4280],> 500,<0.2,–,–
N#Cc1ccc(-c2ccc(C#N)c(Cl)c2)cc1 [EM-4281],145,0.6,–,–
N#Cc1ccc(-c2ccc(F)cc2F)cc1F [EM-4282],> 500,<0.2,–,–
"N#Cc1ccc(-c2ccc(F)cc2F)cc1Cl [EM-4283, 3-chloro-2′,4′-difluoro-biphenyl-4-carbonitrile]",–,2.3,37,–
CSc1cc(-c2ccc(C#N)cc2)ccc1C#N [EM-4285],> 500,<0.2,–,–
CSc1cc(-c2ccc(F)cc2F)ccc1C#N [EM-4288],28,4.4,–,–
CS(=O)(=O)c1cc(-c2ccc(F)cc2F)ccc1C#N [EM-4292],> 500,<0.2,–,–
N#Cc1ccc(-c2ccc(F)cc2C(F)(F)F)cc1C(F)(F)F [EM-4296],> 500,<0.2,–,–
N#Cc1ccc(-c2ccc(C#N)c(C(F)(F)F)c2)c(C(N)=O)c1 [EM-4320],> 500,<0.2,–,–
N#Cc1ccc(-c2ccc(Br)c([N+](=O)[O-])c2)cc1 [EM-4338],> 500,<0.2,–,–
N#Cc1ccc(-c2ccc(C#N)c([N+](=O)[O-])c2)cc1 [EM-4344],> 500,<0.2,–,–
N#Cc1ccc(-c2ccc(F)cc2F)cc1[N+](=O)[O-] [EM-4633],96,0.8,–,–
